Reference: patent US10414769B2, “5,8-dimethyl-9-phenyl-5,8-dihydro-6H-pyrazolo[3,4-h]quinazolin-2-yl)-(1H-pyrazol-3-yl)-amines as IGF-1R/IR inhibitors” (Boehringer Ingelheim International GmbH, priority 2015, dated 2019)

Experiments:
Assay type in all cases: biochemical
CSNK1A1 (CK1 alpha 1) = target: T1, CSNK1A1 (CK1 alpha 1) (Homo sapiens, UniProt P48729); assay: Z'-LYTE kinase selectivity assay CSNK1A1
T1 construct: purchased Life Technologies PV 3850
Excerpt: (§1) In order to compare the kinase selectivity of compounds (I) according to the invention with known prior art compounds the commercially provided SelectScreen® Kinase Profiling Service (Z′-LYTE®) was used (Life Technologies GmbH, Darmstadt, Germany) to investigate the ability of the compounds to inhibit a number of different, representatively selected human kinases. Further details regarding this service are available on the Life Technologies website at
(§2) The Z′-LYTE® biochemical assay employs a fluorescence-based, coupled-enzyme format and is based on the differential sensitivity of phosphorylated and non-phosphorylated peptides to proteolytic cleavage. The peptide substrate is labeled with two fluorophores—one at each end—that make up a FRET pair.
(§3) In the primary reaction, the kinase transfers the gamma-phosphate of ATP to a single tyrosine, serine or threonine residue in a synthetic FRET-peptide. In the secondary reaction, a site-specific protease recognizes and cleaves non-phosphorylated FRET-peptides. Phosphorylation of FRET-peptides suppresses cleavage by the Development Reagent. Cleavage disrupts FRET between the donor (i.e., coumarin) and acceptor (i.e., fluorescein) fluorophores on the FRET-peptide, whereas uncleaved, phosphorylated FRET-peptides maintain FRET. A ratiometric method, which calculates the ratio (the Emission Ratio) of donor emission to acceptor emission after excitation of the donor fluorophore at 400 nm, is used to quantitate reaction progress, as shown in the equation below.
(§4) The Test Compounds are screened at 1 μM.
The 2×CSNK1A1 (CK1 alpha 1) (# PV 3850)/Ser/Thr 11 (Z′-LYTE® Kinase Assay Kit—Ser/Thr 11 Peptide, # PV 3670) mixture is prepared in 50 mM HEPES pH 7.5, 0.01% BRIJ-35, 10 mM MgCl2, 1 mM EGTA, 2 mM DTT. The final 10 μL Kinase Reaction consists of 2.6-13.5 ng CSNK1A1 (CK1 alpha 1) and 2 μM Ser/Thr 11 in 50 mM HEPES pH 7.5, 0.01% BRIJ-35, 10 mM MgCl2, 1 mM EGTA, 1 mM DTT. After the 1 hour Kinase Reaction incubation, 5 μL of a 1:16 dilution of Development Reagent B is added.

PAK4 = target: T2, PAK4 (Homo sapiens, UniProt O96013); assay: Z'-LYTE kinase selectivity assay PAK4
T2 construct: purchased Life Technologies PV 4212
Excerpt: as §1, §2, §3, §4
The 2×PAK4 (# PV 4212)/Ser/Thr 20 (Z′-LYTE® Kinase Assay Kit—Ser/Thr 20 Peptide, # PV 4532) mixture is prepared in 50 mM HEPES pH 7.5, 0.01% BRIJ-35, 10 mM MgCl2, 1 mM EGTA. The final 10 μL Kinase Reaction consists of 0.1-0.75 ng PAK4 and 2 μM Ser/Thr 20 in 50 mM HEPES pH 7.5, 0.01% BRIJ-35, 10 mM MgCl2, 1 mM EGTA. After the 1 hour Kinase Reaction incubation, 5 μL of a 1:512 dilution of Development Reagent A is added.

PDK1 Direct = target: T3, PDK1 Direct (Homo sapiens, UniProt O15530); assay: Z'-LYTE kinase selectivity assay PDK1
T3 sequence (O15530 1-556): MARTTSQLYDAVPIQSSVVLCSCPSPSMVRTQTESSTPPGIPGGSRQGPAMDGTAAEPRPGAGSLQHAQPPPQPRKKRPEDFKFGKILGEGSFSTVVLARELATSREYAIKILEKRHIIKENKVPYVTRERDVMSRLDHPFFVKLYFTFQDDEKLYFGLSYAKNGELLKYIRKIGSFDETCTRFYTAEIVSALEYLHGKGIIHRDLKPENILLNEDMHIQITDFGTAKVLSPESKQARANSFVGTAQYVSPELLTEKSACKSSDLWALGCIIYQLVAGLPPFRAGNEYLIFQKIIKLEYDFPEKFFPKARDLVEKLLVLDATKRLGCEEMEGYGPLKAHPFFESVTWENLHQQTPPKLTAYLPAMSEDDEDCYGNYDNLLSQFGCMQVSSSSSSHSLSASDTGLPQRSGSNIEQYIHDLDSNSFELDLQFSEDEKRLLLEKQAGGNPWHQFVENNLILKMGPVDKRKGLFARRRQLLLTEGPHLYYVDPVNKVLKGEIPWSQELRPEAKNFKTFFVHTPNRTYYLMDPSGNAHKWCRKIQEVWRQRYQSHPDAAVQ
Excerpt: as §1, §2, §3, §4
The 2×PDK1 Direct/Ser/Thr 07 (Z′-LYTE® Kinase Assay Kit—Ser/Thr 7 Peptide, # PV 3180) mixture is prepared in 50 mM Tris pH 8.5, 0.01% BRIJ-35, 10 mM MgCl2, 1 mM EGTA, 0.02% NaN3. The final 10 μL Kinase Reaction consists of 5.04-29.4 ng PDK1 Direct and 2 μM Ser/Thr 07 in 50 mM Tris/HEPES pH 8.0, 0.01% BRIJ-35, 10 mM MgCl2, 1 mM EGTA, 0.01% NaN3. After the 1 hour Kinase Reaction incubation, 5 μL of a 1:65000 dilution of Development Reagent A is added.

AKT2 (PKB beta) = target: T4, AKT2 (PKB beta) (Homo sapiens, UniProt P31751); assay: Z'-LYTE kinase selectivity assay AKT2
T4 construct: purchased Life Technologies PV3975
Excerpt: as §1, §2, §3, §4
The 2×AKT2 (PKB beta) (# PV3975)/Ser/Thr 06 (Z′-LYTE® Kinase Assay Kit—Ser/Thr 6 Peptide, # PV 3179) mixture is prepared in 50 mM HEPES pH 7.5, 0.01% BRIJ-35, 10 mM MgCl2, 1 mM EGTA. The final 10 μL Kinase Reaction consists of 0.78-40 ng AKT2 (PKB beta) and 2 μM Ser/Thr 06 in 50 mM HEPES pH 7.5, 0.01% BRIJ-35, 10 mM MgCl2, 1 mM EGTA. After the 1 hour Kinase Reaction incubation, 5 μL of a 1:4096 dilution of Development Reagent A is added.

T4 sequence (P31751 whole entry): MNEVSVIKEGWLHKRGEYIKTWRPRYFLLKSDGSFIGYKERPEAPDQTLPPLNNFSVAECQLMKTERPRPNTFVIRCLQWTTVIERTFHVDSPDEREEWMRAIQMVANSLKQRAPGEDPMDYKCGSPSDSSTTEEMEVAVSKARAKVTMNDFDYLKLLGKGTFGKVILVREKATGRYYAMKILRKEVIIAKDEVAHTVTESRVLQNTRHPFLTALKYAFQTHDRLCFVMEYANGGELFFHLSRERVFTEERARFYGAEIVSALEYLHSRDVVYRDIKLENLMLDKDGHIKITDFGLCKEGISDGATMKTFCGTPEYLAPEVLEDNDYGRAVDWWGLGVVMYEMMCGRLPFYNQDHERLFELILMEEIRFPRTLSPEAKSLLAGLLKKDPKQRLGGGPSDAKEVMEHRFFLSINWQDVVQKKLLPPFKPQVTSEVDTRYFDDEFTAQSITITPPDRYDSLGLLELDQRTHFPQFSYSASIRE
T1 sequence (P48729 whole entry): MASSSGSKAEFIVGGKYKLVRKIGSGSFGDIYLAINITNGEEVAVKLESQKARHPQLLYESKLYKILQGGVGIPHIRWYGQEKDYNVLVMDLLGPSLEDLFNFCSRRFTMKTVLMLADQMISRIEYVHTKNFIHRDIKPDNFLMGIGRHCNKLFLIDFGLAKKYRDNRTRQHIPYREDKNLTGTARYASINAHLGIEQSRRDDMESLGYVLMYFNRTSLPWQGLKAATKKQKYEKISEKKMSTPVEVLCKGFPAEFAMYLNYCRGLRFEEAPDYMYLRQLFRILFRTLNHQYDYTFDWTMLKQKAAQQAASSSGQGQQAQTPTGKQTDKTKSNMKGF
T2 sequence (O96013 whole entry): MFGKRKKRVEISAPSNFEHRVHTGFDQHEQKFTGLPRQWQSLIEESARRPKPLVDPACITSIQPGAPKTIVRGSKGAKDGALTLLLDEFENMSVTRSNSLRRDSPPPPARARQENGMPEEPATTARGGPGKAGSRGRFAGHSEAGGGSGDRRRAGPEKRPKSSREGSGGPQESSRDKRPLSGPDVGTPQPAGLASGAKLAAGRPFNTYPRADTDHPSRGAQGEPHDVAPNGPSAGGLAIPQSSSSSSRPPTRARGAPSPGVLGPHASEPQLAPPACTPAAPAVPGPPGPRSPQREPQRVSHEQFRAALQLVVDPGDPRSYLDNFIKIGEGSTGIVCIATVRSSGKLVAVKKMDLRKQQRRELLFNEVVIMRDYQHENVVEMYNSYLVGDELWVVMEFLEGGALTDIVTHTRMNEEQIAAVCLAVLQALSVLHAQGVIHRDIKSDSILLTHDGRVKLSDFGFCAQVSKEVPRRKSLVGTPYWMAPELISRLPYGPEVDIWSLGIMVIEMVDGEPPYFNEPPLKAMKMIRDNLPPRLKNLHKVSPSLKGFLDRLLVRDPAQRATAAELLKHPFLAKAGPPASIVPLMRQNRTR

| SMILES | inhibition at 1 µM (CSNK1A1 (CK1 alpha 1)) [%] | inhibition at 1 µM (PAK4) [%] | inhibition at 1 µM (PDK1 Direct) [%] | inhibition at 1 µM (AKT2 (PKB beta)) [%] |
| --- | --- | --- | --- | --- |
| C[C@@H]1Cc2nn(C)c(-c3ccccc3)c2-c2nc(Nc3ccn(CCN4CCN(C)CC4)n3)ncc21 [Compound I-1] | 16 | 14 | -2 | 3 |
| C[C@@H]1Cc2nn(C)c(-c3ccccc3)c2-c2nc(Nc3ccn(CCN4CCOCC4)n3)ncc21 [Compound I-2] | 49 | 24 | 1 | 1 |
| C[C@@H]1Cc2nn(C)c(-c3ccccc3)c2-c2nc(Nc3ccn(CCN4CCN(CC(C)(C)O)CC4)n3)ncc21 [Compound I-3] | 37 | 39 | 9 | 7 |
| CC(O)CN1CCN(CCn2ccc(Nc3ncc4c(n3)-c3c(nn(C)c3-c3ccccc3)C[C@H]4C)n2)CC1 (stereo partly shown) [Compound I-7] | 29 | 19 | 3 | 7 |
| C[C@@H]1Cc2nn(C)c(-c3ccccc3)c2-c2nc(Nc3ccn(CCN4CCN(CC(=O)OC5CCOCC5)CC4)n3)ncc21 [Compound I-8] | 38 | 21 | 5 | 4 |
| C[C@@H]1Cc2nn(C)c(-c3ccccc3)c2-c2nc(Nc3ccn(CCN4CCN(CC5CCCO5)CC4)n3)ncc21 (stereo partly shown) [Compound I-9] | 37 | 32 | 6 | 2 |
| COCCN1CCN(CCn2ccc(Nc3ncc4c(n3)-c3c(nn(C)c3-c3ccccc3)C[C@H]4C)n2)CC1 [Compound I-11] | 17 | 27 | 20 | 3 |
